In ChEMBL document CHEMBL1201862, “PubChem BioAssay data set” (2004):
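Cultured in 96-well plates, cells were exposed to test compound for 48 hours across five concentrations. GI50 marks 50% less growth.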 Activity calls are given as the source filed them. Rule as the data show it: active = GI50 up to about 1.1 µM and inactive = higher.

What was measured:
Assay in all cases: NCI tumour cell line growth inhibition, 48 h
HCT-116 = tested on: HCT-116
MDA-MB-231 = tested on: MDA-MB-231
PC-3 = tested on: PC-3
UO-31 = tested on: UO-31
DU-145 = tested on: DU-145
SF-539 = tested on: SF-539
SW-620 = tested on: SW-620
COLO 205 = tested on: COLO 205
SNB-75 = tested on: SNB-75
OVCAR-4 = tested on: OVCAR-4
Malme-3M = tested on: Malme-3M
UACC-62 = tested on: UACC-62
MDA-MB-435 = tested on: MDA-MB-435
U-251 = tested on: U-251
NCI-H226 = tested on: NCI-H226
ACHN = tested on: ACHN
CAKI-1 = tested on: CAKI-1
RPMI-8226 = tested on: RPMI-8226
IGROV-1 = tested on: IGROV-1
A549 = tested on: A549
786-0 = tested on: 786-0
MCF7 = tested on: MCF7
Hs-578T = tested on: Hs-578T
NCI/ADR-RES = tested on: NCI/ADR-RES
SF-268 = tested on: SF-268
SK-MEL-28 = tested on: SK-MEL-28
SK-MEL-5 = tested on: SK-MEL-5
HOP-62 = tested on: HOP-62
NCI-H460 = tested on: NCI-H460
CCRF-CEM = tested on: CCRF-CEM
UACC-257 = tested on: UACC-257
NCI-H23 = tested on: NCI-H23
SK-MEL-2 = tested on: SK-MEL-2
SF-295 = tested on: SF-295
EKVX = tested on: EKVX
KM12 = tested on: KM12
MDA-N = tested on: MDA-N
LOX IMVI = tested on: LOX IMVI
BT-549 = tested on: BT-549
HCT-15 = tested on: HCT-15
TK-10 = tested on: TK-10
SN12C = tested on: SN12C
K562 = tested on: K562
MOLT-4 = tested on: MOLT-4
SNB-19 = tested on: SNB-19
SK-OV-3 = tested on: SK-OV-3
HT-29 = tested on: HT-29
OVCAR-8 = tested on: OVCAR-8
A498 = tested on: A498
M14 = tested on: M14
OVCAR-3 = tested on: OVCAR-3
NCI-H522 = tested on: NCI-H522
RXF 393 = tested on: RXF 393
OVCAR-5 = tested on: OVCAR-5
HOP-92 = tested on: HOP-92
SR = tested on: SR
T47D = tested on: T47D
HL-60 = tested on: HL-60

With `CC(NC(=O)C(N)CC(=O)O)NC(=O)N1CCOCC1` (stereo unspecified) the GI50 (HCT-116) was > 100 µM (inactive), the GI50 (MDA-MB-231) was > 100 µM (inactive) and the GI50 (PC-3) was > 100 µM (inactive). The GI50 (UO-31) was > 100 µM (inactive), the GI50 (DU-145) was > 100 µM (inactive) and the GI50 (SF-539) was > 100 µM (inactive). For the same molecule, the GI50 (SW-620) was > 100 µM (inactive), the GI50 (COLO 205) was > 100 µM (inactive) and the GI50 (SNB-75) was > 100 µM (inactive). The GI50 (OVCAR-4) was > 100 µM (inactive), the GI50 (Malme-3M) was > 100 µM (inactive) and the GI50 (UACC-62) was 19.1 µM (inactive). For the same molecule, the GI50 (MDA-MB-435) was > 100 µM (inactive), the GI50 (U-251) was > 100 µM (inactive) and the GI50 (NCI-H226) was > 100 µM (inactive). The GI50 (ACHN) was > 100 µM (inactive), the GI50 (CAKI-1) was > 100 µM (inactive) and the GI50 (RPMI-8226) was > 100 µM (inactive). For the same molecule, the GI50 (IGROV-1) was > 100 µM (inactive), the GI50 (A549) was > 100 µM (inactive) and the GI50 (786-0) was > 100 µM (inactive). The GI50 (MCF7) was > 100 µM (inactive), the GI50 (Hs-578T) was > 100 µM (inactive) and the GI50 (NCI/ADR-RES) was > 100 µM (inactive). The GI50 (SF-268) was > 100 µM (inactive), the GI50 (SK-MEL-28) was > 100 µM (inactive) and the GI50 (SK-MEL-5) was > 100 µM (inactive). For the same molecule, the GI50 (HOP-62) was > 100 µM (inactive), the GI50 (NCI-H460) was > 100 µM (inactive) and the GI50 (CCRF-CEM) was > 100 µM (inactive). For the same molecule, the GI50 (UACC-257) was > 100 µM (inactive), the GI50 (NCI-H23) was > 100 µM (inactive) and the GI50 (SK-MEL-2) was > 100 µM (inactive). The GI50 (SF-295) was > 100 µM (inactive), the GI50 (EKVX) was > 100 µM (inactive) and the GI50 (KM12) was > 100 µM (inactive). The GI50 (MDA-N) was > 100 µM (inactive), the GI50 (LOX IMVI) was > 100 µM (inactive) and the GI50 (BT-549) was > 100 µM (inactive). For the same molecule, the GI50 (HCT-15) was > 100 µM, the GI50 (TK-10) was > 100 µM (inactive) and the GI50 (SN12C) was > 100 µM (inactive). The GI50 (K562) was > 100 µM (inactive), the GI50 (MOLT-4) was > 100 µM (inactive) and the GI50 (SNB-19) was > 100 µM (inactive). For the same molecule, the GI50 (SK-OV-3) was > 100 µM (inactive), the GI50 (HT-29) was > 100 µM (inactive) and the GI50 (OVCAR-8) was > 100 µM (inactive). For the same molecule, the GI50 (A498) was > 100 µM (inactive), the GI50 (M14) was > 100 µM (inactive) and the GI50 (OVCAR-3) was > 100 µM (inactive). For the same molecule, the GI50 (NCI-H522) was > 100 µM (inactive), the GI50 (RXF 393) was > 100 µM (inactive) and the GI50 (OVCAR-5) was > 100 µM (inactive).

With `CP(=O)(O)C(N)c1ccccc1` (stereo unspecified) the GI50 (HCT-116) was > 100 µM (inactive), the GI50 (PC-3) was > 100 µM (inactive) and the GI50 (UO-31) was > 100 µM (inactive). The GI50 (DU-145) was > 100 µM (inactive), the GI50 (SW-620) was > 100 µM (inactive) and the GI50 (COLO 205) was > 100 µM (inactive). The GI50 (OVCAR-4) was > 100 µM (inactive), the GI50 (Malme-3M) was > 100 µM (inactive) and the GI50 (UACC-62) was > 100 µM (inactive). For the same molecule, the GI50 (MDA-MB-435) was > 100 µM (inactive), the GI50 (U-251) was > 100 µM (inactive) and the GI50 (NCI-H226) was > 100 µM (inactive). The GI50 (ACHN) was > 100 µM (inactive), the GI50 (CAKI-1) was > 100 µM (inactive) and the GI50 (RPMI-8226) was > 100 µM (inactive). For the same molecule, the GI50 (IGROV-1) was > 100 µM (inactive), the GI50 (A549) was > 100 µM (inactive) and the GI50 (HOP-92) was > 100 µM (inactive). For the same molecule, the GI50 (786-0) was > 100 µM (inactive), the GI50 (MCF7) was > 100 µM (inactive) and the GI50 (Hs-578T) was > 100 µM (inactive). The GI50 (NCI/ADR-RES) was > 100 µM (inactive), the GI50 (SF-268) was > 100 µM (inactive) and the GI50 (SK-MEL-28) was > 100 µM (inactive). For the same molecule, the GI50 (SK-MEL-5) was > 100 µM (inactive), the GI50 (HOP-62) was > 100 µM (inactive) and the GI50 (NCI-H460) was > 100 µM (inactive). The GI50 (CCRF-CEM) was > 100 µM (inactive), the GI50 (UACC-257) was > 100 µM (inactive) and the GI50 (NCI-H23) was > 100 µM (inactive). For the same molecule, the GI50 (SF-295) was > 100 µM (inactive), the GI50 (EKVX) was > 100 µM (inactive) and the GI50 (KM12) was > 100 µM (inactive). For the same molecule, the GI50 (MDA-N) was > 100 µM (inactive), the GI50 (LOX IMVI) was > 100 µM (inactive) and the GI50 (SR) was > 100 µM (inactive). For the same molecule, the GI50 (BT-549) was > 100 µM (inactive), the GI50 (T47D) was > 100 µM (inactive) and the GI50 (HCT-15) was > 100 µM. The GI50 (TK-10) was > 100 µM (inactive), the GI50 (SN12C) was > 100 µM (inactive) and the GI50 (K562) was > 100 µM (inactive). For the same molecule, the GI50 (MOLT-4) was > 100 µM (inactive), the GI50 (SNB-19) was > 100 µM (inactive) and the GI50 (SK-OV-3) was > 100 µM (inactive). The GI50 (HT-29) was > 100 µM (inactive), the GI50 (OVCAR-8) was > 100 µM (inactive) and the GI50 (M14) was > 100 µM (inactive). The GI50 (OVCAR-3) was > 100 µM (inactive), the GI50 (NCI-H522) was > 100 µM (inactive) and the GI50 (HL-60) was > 100 µM (inactive). For the same molecule, the GI50 (OVCAR-5) was > 100 µM (inactive).
